Reference: the NIST ThermoML archive (doi:10.1016/j.tca.2013.04.021)
Numbers after ± are expanded uncertainties.

What was measured:
[1] = Molar enthalpy of transition or fusion; conditions: Crystal; DSC
[2] = Crystal; DTA

Molar enthalpy of transition or fusion [1] | Normal melting temperature [2] | SMILES
33.5 ± 0.9 kJ/mol | 71.87 ± 1.1 °C | CCN(C(=O)N(CC)c1ccccc1)c1ccccc1 [1,3-diethyl-1,3-diphenylurea]
33.1 ± 0.9 kJ/mol | 120.00 ± 1.1 °C | CN(C(=O)N(C)c1ccccc1)c1ccccc1 [1,3-dimethyl-1,3-diphenylurea]
20.8 ± 0.8 kJ/mol | 113.87 ± 1.1 °C | CC(=O)OCCNc1ccc([N+](=O)[O-])cc1 [2-[(4-nitrophenyl)amino]ethanol 1-acetate]
22.7 ± 0.8 kJ/mol | 95.06 ± 1.1 °C | CCNc1ccc([N+](=O)[O-])cc1 [N-ethyl-4-nitroaniline]
19.7 ± 0.7 kJ/mol | 53.50 ± 1.1 °C | c1ccc(Nc2ccccc2)cc1 [diphenylamine]
